Experimental data taken from patent publication USRE46856E1, “Substituted 2,3-dihydroimidazo[1,2-c]quinazoline derivatives useful for treating hyper-proliferative disorders and diseases associated with angiogenesis” (Bayer Intellectual Property GmbH, priority 2006, dated 2018).
Counter-ions that a name gives are not always drawn.

system: IGF-1 induced AKT phosphorylation in A549 cells; assay: IGF-1 induced AKT phosphorylation assay (A549 cell assay); assay type: cell-based; conditions: Homo sapiens; A549 cells, 25 ng/ml IGF-1, phospho-AKT(Ser 473); read-out: average IC50 in the A549 cell assay
Excerpt: [Determination of IC50 Values of Compounds in Cell Based Assays of PI3K Activity] 96-well collagen treated clear bottom/black sided Costar plates were purchased from CORNING LIFE SCIENCES (Corning, N.Y.; at.#3904). Gibco RPMI medium (Cat.#11875), Biosource anti-phospho-AKT([…]) antibody (Cat.#44-621G) and recombinant IGF-1 (Cat.#PHG0074) were purchased from INVITROGEN (Carlsbad, Calif.). The secondary donkey anti-rabbit IgG horse radish peroxidase conjugate (Cat. #N[…]) and ECL chemiluminesence reagent (Cat.#RPN2209) were purchased from […] (Buckinghamshire, UK). Cell culture tested bovine serum albumin solution (35% in DPBS; Cat.#A7979) and all other chemicals were purchased from SIGMA (St. Louis, Mo.). The Wallac Victor2 1420 Multilabel HTS Counter was purchased from […] (Wellesley, Mass.) […] All wells (except no IGF-1 controls) were then treated with 25 ng/ml IGF-1 for 10 minutes at 37° C. in a 5% CO2 incubator. Following removal of the supernatants and washing with the wells with TBS (50 mM Tris pH 8.0 containing 138 mM NaCL and 27 mM KCl), 200 µL of 3.7% formaldehyde in TBS was added to each well, and the plate was incubated at 4° C. for 10 minutes. Supernatants were once again removed and replaced with 50 μL Methanol (-20° C.) and the plate incubated at 4° C. for 5 minutes. 200 μL of 0.1% BSA in TBS was then added to each well and the plate incubated at room temperature for 1⁄2 hour. Supernatants were removed and 50 μL of a solution comprising the primary anti-phospho-AKT([…]) antibody diluted 1:250 in TBS containing 0.1% BSA was added to each well (except control/background wells). The plate was then incubated for 11⁄2 hour at room temperature. Supernatants were removed, each well was washed 3 times with 200 μL TBS, and 100 μL of a solution containing the secondary donkey anti-rabbit IgG antibody HRP-conjugate diluted 1:100 in TBS-T (TBS containing 0.1% triton). Plates were then incubated for 1 hour at room temperature. After removing the secondary antibody, each well was washed 6 times with cold TBS-T, 100 μL of ECL was added to each well, and the plate was placed on an orbital shaker for 1 minute. The plates were then read on a Wallac Victor2 1420 Multilabel HTS Counter using the luminometry window (maximum light detection is measured at […]). IC50 values were determined from the inhibition curve.

First: COCCNc1ncc(C(=O)NC2=Nc3c(ccc(OCCCN4CCOCC4)c3OC)C3=NCCN23)cn1 [Example 44, 2-[(2-methoxyethyl)amino]-N-[7-methoxy-8-(3-morpholin-4-ylpropoxy)-2,3-dihydroimidazo[1,2-c]quinazolin-5-yl]pyrimidine-5-carboxamide]
Second: COc1c(OCCCN2CCOCC2)ccc2c1N=C(NC(=O)c1cnc(NCCN(C)C)nc1)N1CCN=C21 [Example 45, 2-{[2-(dimethylamino)ethyl]amino}-N-[7-methoxy-8-(3-morpholin-4-ylpropoxy)-2,3-dihydroimidazo[1,2-c]quinazolin-5-yl]pyrimidine-5-carboxamide]
The IC50 of the first is higher: greater than 1000 nM for the first, 100 to 1000 nM for the second. The second is the more potent here.

`COc1c(OCCCN(C)C)ccc2c1N=C(NC(=O)c1ccc(N)nc1)N1CCN=C21` [Example 46, 6-amino-N-{8-[3-(dimethylamino)propoxy]-7-methoxy-2,3-dihydroimidazo[1,2-c]quinazolin-5-yl}nicotinamide] and `COc1c(OCCN(C)C)ccc2c1N=C(NC(=O)c1ccc(C)nc1)N1CCN=C21` [Example 70, N-{8-[2-(dimethylamino)ethoxy]-7-methoxy-2,3-dihydroimidazo[1,2-c]quinazolin-5-yl}-6-methylnicotinamide] cannot be ordered by IC50: less than 100 nM for the first, less than 100 nM for the second.

Compared with `COc1c(OCCCN2CCOCC2)ccc2c1N=C(NC(=O)c1ccc(N3CC[C@H](N)C3)nc1)N1CCN=C21` [Example 51, 6-[(3S)-3-aminopyrrolidin-1-yl]-N-[7-methoxy-8-(3-morpholin-4-ylpropoxy)-2,3-dihydroimidazo[1,2-c]quinazolin-5-yl]nicotinamide hydrochloride hydrate], `COc1c(OCCCN2CCOCC2)ccc2c1N=C(NC(=O)c1ccc(N3CC[C@@H](N)C3)nc1)N1CCN=C21` [Example 52, 6-[(3R)-3-aminopyrrolidin-1-yl]-N-[7-methoxy-8-(3-morpholin-4-ylpropoxy)-2,3-dihydroimidazo[1,2-c]quinazolin-5-yl]nicotinamide hydrochloride] is lower in IC50: 100 to 1000 nM for the first, less than 100 nM for the second. The second is the more potent here.

`COc1c(OCCCN2CCOCC2)ccc2c1N=C(NC(=O)c1ccc(NCc3ccco3)nc1)N1CCN=C21` [Example 54, 6-[(2-furylmethyl)amino]-N-[7-methoxy-8-(3-morpholin-4-ylpropoxy)-2,3-dihydroimidazo[1,2-c]quinazolin-5-yl]nicotinamide] and `COCCNc1ccc(C(=O)NC2=Nc3c(ccc(OCCCN4CCOCC4)c3OC)C3=NCCN23)cn1` [Example 55, 6-[(2-methoxyethyl)amino]-N-[7-methoxy-8-(3-morpholin-4-ylpropoxy)-2,3-dihydroimidazo[1,2-c]quinazolin-5-yl]nicotinamide] fall in the same range of IC50: 100 to 1000 nM for the first, 100 to 1000 nM for the second.

`CNCCCOc1ccc2c(c1OC)N=C(NC(=O)c1cccnc1)N1CCN=C21` [Example 58, N-{7-methoxy-8-[3-(methylamino)propoxy]-2,3-dihydroimidazo[1,2-c]quinazolin-5-yl}nicotinamide] and `COc1c(OCCCN2CCN(C)CC2)ccc2c1N=C(NC(=O)c1cccnc1)N1CCN=C21` [Example 64, N-{7-methoxy-8-[3-(4-methylpiperazin-1-yl)propoxy]-2,3-dihydroimidazo[1,2-c]quinazolin-5-yl}nicotinamide] fall in the same range of IC50: 100 to 1000 nM for the first, 100 to 1000 nM for the second.

`COc1c(OCCCN2CCOCC2)ccc2c1N=C(NC(=O)c1ccc(NC(=O)C3CC3)nc1)N1CCN=C21` [Example 60, 6-[(cyclopropylcarbonyl)amino]-N-[7-methoxy-8-(3-morpholin-4-ylpropoxy)-2,3-dihydroimidazo[1,2-c]quinazolin-5-yl]nicotinamide] and `CNC(=O)Nc1ccc(C(=O)NC2=Nc3c(ccc(OCCCN4CCOCC4)c3OC)C3=NCCN23)cn1` [Example 66, N-[7-methoxy-8-(3-morpholin-4-ylpropoxy)-2,3-dihydroimidazo[1,2-c]quinazolin-5-yl]-6-{[(methylamino)carbonyl]amino}nicotinamide] cannot be ordered by IC50: less than 100 nM for the first, less than 100 nM for the second.

`COc1c(OCCCN2CCOCC2)ccc2c1N=C(NC(=O)c1ccc(NC(=O)C(C)C)nc1)N1CCN=C21` [Example 63, 6-(isobutyrylamino)-N-[7-methoxy-8-(3-morpholin-4-ylpropoxy)-2,3-dihydroimidazo[1,2-c]quinazolin-5-yl]nicotinamide] and `COc1c(OCCCN2CCOCC2)ccc2c1N=C(NC(=O)c1ccc(NC(=O)NC(C)C)nc1)N1CCN=C21` [Example 71, 6-{[(isopropylamino)carbonyl]amino}-N-[7-methoxy-8-(3-morpholin-4-ylpropoxy)-2,3-dihydroimidazo[1,2-c]quinazolin-5-yl]nicotinamide] cannot be ordered by IC50: less than 100 nM for the first, less than 100 nM for the second.

First: CNC(=O)Nc1nc(C(=O)NC2=Nc3c(ccc(OCCCN4CCOCC4)c3OC)C3=NCCN23)cs1 [Example 65, N-[7-methoxy-8-(3-morpholin-4-ylpropoxy)-2,3-dihydroimidazo[1,2-c]quinazolin-5-yl]-2-{[(methylamino)carbonyl]amino}-1,3-thiazole-4-carboxamide]
Second: CNc1nc(C(=O)NC2=Nc3c(ccc(OCCCN4CCOCC4)c3OC)C3=NCCN23)cs1 [Example 67, N-[7-methoxy-8-(3-morpholin-4-ylpropoxy)-2,3-dihydroimidazo[1,2-c]quinazolin-5-yl]-2-(methylamino)-1,3-thiazole-4-carboxamide]
The IC50 of the first is higher: greater than 1000 nM for the first, 100 to 1000 nM for the second. The second is the more potent here.

`COc1c(OCCN2CCOCC2)ccc2c1N=C(NC(=O)c1cccnc1)N1CCN=C21` [Example 68, N-[7-methoxy-8-(2-morpholin-4-ylethoxy)-2,3-dihydroimidazo[1,2-c]quinazolin-5-yl]nicotinamide] and `COc1c(OCCN2CCCC2)ccc2c1N=C(NC(=O)c1cccnc1)N1CCN=C21` [Example 75, N-[7-methoxy-8-(2-pyrrolidin-1-ylethoxy)-2,3-dihydroimidazo[1,2-c]quinazolin-5-yl]nicotinamide] cannot be ordered by IC50: less than 100 nM for the first, less than 100 nM for the second.

First: COc1c(OCCN(C)C)ccc2c1N=C(NC(=O)c1sc(C)nc1C)N1CCN=C21 [Example 69, N-{8-[2-(dimethylamino)ethoxy]-7-methoxy-2,3-dihydroimidazo[1,2-c]quinazolin-5-yl}-2,4-dimethyl-1,3-thiazole-5-carboxamide]
Second: COc1c(OCCCN2CCOCC2)ccc2c1N=C(NC(=O)c1ccc(N(C)C)nc1)N1CCN=C21 [Example 73, 6-(dimethylamino)-N-[7-methoxy-8-(3-morpholin-4-ylpropoxy)-2,3-dihydroimidazo[1,2-c]quinazolin-5-yl]nicotinamide]
The IC50 of the first is lower: less than 100 nM for the first, 100 to 1000 nM for the second. The first is the more potent here.

`COc1c(OCCCN2CCOCC2)ccc2c1N=C(NC(=O)c1ccc(N3CCCC3)nc1)N1CCN=C21` [Example 72, N-[7-methoxy-8-(3-morpholin-4-ylpropoxy)-2,3-dihydroimidazo[1,2-c]quinazolin-5-yl]-6-pyrrolidin-1-ylnicotinamide] and `COc1c(OCCCN2CCOCC2)ccc2c1N=C(NC(=O)c1ccc(F)nc1)N1CCN=C21` [Example 78, 6-fluoro-N-[7-methoxy-8-(3-morpholin-4-ylpropoxy)-2,3-dihydroimidazo[1,2-c]quinazolin-5-yl]nicotinamide] fall in the same range of IC50: 100 to 1000 nM for the first, 100 to 1000 nM for the second.

`COc1c(OCCCN2CCCCC2)ccc2c1N=C(NC(=O)c1cccnc1)N1CCN=C21` [Example 74, N-[7-methoxy-8-(3-piperidin-1-ylpropoxy)-2,3-dihydroimidazo[1,2-c]quinazolin-5-yl]nicotinamide] and `COc1c(OCCN2CCCCC2)ccc2c1N=C(NC(=O)c1cccnc1)N1CCN=C21` [Example 76, N-[7-methoxy-8-(2-piperidin-1-ylethoxy)-2,3-dihydroimidazo[1,2-c]quinazolin-5-yl]nicotinamide] cannot be ordered by IC50: less than 100 nM for the first, less than 100 nM for the second.

Compared with `CCNC(=O)Nc1ccc(C(=O)NC2=Nc3c(ccc(OCCCN4CCOCC4)c3OC)C3=NCCN23)cn1` [Example 77, 6-{[(ethylamino)carbonyl]amino}-N-[7-methoxy-8-(3-morpholin-4-ylpropoxy)-2,3-dihydroimidazo[1,2-c]quinazolin-5-yl]nicotinamide], `CCNc1nc(C(=O)NC2=Nc3c(ccc(OCCCN4CCOCC4)c3OC)C3=NCCN23)cs1` [Example 80, 2-(ethylamino)-N-[7-methoxy-8-(3-morpholin-4-ylpropoxy)-2,3-dihydroimidazo[1,2-c]quinazolin-5-yl]-1,3-thiazole-4-carboxamide] is higher in IC50: less than 100 nM for the first, 100 to 1000 nM for the second.

With `COc1c(OCCCN2CCOCC2)ccc2c1N=C(NC(=O)c1coc(N)n1)N1CCN=C21` [Example 79, 2-amino-N-[7-methoxy-8-(3-morpholin-4-ylpropoxy)-2,3-dihydroimidazo[1,2-c]quinazolin-5-yl]-1,3-oxazole-4-carboxamide] the IC50 was greater than 1000 nM.
